The results in this text go back to patent US20250302862A1, “SMALL RNA DRUG FOR INHIBITING ACTIVITY OF CANCER CELLS” (Institute of Basic Medical Sciences Chinese Academy of …, priority 2022, published 2025).

Format in all cases: cell-based, human
Data set [1] has as its system A549 cells. Nature of the data set: Concentration-dependent proliferation inhibition, MTS. Conditions: concentration gradient, MTS 48 h after transfection. Here is the method:
(§1) 1) H460 and A549 cells with a cell density of more than 90% in 10 cm^2 dishes were plated in 96-well plates according to the cell growth rate, and transfected after 12 h, and the groups (3 wells per group) were divided as follows: • BLANK group: 20 uL of opti-MEM • negative control group (NC group) and experimental group: • A. 10 uL of opti-MEM and 0.2 uL of iMax were mixed well for 5 min • B. 10 uL of opti-MEM and small RNA were mixed well (the concentration gradient of H460 cell experimental group was set as: 0.01 noml/L, 0.03 noml/L, 0.1 noml/L, 0.39 noml/L, 0.78 noml/L, 1.56 noml/L, 3.125 noml/L, 6.25 noml/L, 12.5 noml/L, 25 noml/L, 50 noml/L, 100 noml/L; the concentration gradient of A549 cell experimental group was set as: 0.01 noml/L, 0.03 noml/L, 0.1 noml/L, 0.3 noml/L, 1 noml/L, 3 noml/L, 10 noml/L, 30 noml/L, 100 noml/L, 300 noml/L; the final concentration of sRNA in NC group was 100 noml/L) • C. solution A and solution B were mixed well and let stand for 15 min, and then was added at a 20 ul/well system • Note: 100 uL of nuclease-free water was added to 2 nmol of small RNA dry powder for dissolution at a storage concentration of 20 umol/L
(§2) 2) Detection of cell viability: MTS detection was performed after 48 h.
(§3) Formulation of MTS detection solution was as follows: opti-MEM:MTS A solution:MTS B solution=100:20:1. After removing the supernatant, 100 uL of MTS detection solution was added to each well and incubated for 0.5-2 h. Absorbance values at wavelengths of 490 nm and 630 nm were measured in a microplate reader.
(§4) 1) H460 and A549 cells with a cell density of more than 90% in 10 cm^2 dishes were plated in 96-well plates according to the cell growth rate, and transfected after 12 h, and the groups (3 wells per group) were divided as follows: • blank control group: 20 uL of opti-MEM • negative control group (NC group) and experimental group: • A. 10 uL of opti-MEM and 2 uL of iMax were mixed well for 5 min • B. 10 uL of opti-MEM and small RNA were mixed well (the concentration gradient of H460 cell experimental group was set as: 0.01 noml/L, 0.03 nmol/L, 0.1 noml/L, 0.3 noml/L, 1 noml/L, 3 noml/L, 10 noml/L, 30 noml/L, 100 noml/L, 300 noml/L, 400 noml/L, 500 noml/L; the concentration gradient of A549 cell experimental group was set as: 0.01 noml/L, 0.03 nmol/L, 0.1 noml/L, 0.3 noml/L, 1 noml/L, 3 noml/L, 10 noml/L, 30 noml/L, 100 noml/L, 300 noml/L; the final concentration of sRNA in NC group was 100 noml/L) • C. solution A and solution B were mixed well and let stand for 15 min, and then was added to each well at a 20 uL system • positive group: the concentration of paclitaxel was adjusted to 100 nmol/L • Note: 100 uL of nuclease-free water was added to 2 nmol of small RNA dry powder for dissolution at a storage concentration of 20 umol/L
(§5) 1) H460 and A549 cells with a cell density of more than 90% in 10 cm^2 dishes were plated in 96-well plates according to the cell growth rate, and transfected after 12 h, and the groups (3 wells per group) were divided as follows: • blank control group: 20 uL of opti-MEM • negative control group (NC group) and experimental group: • A. 10 uL of opti-MEM and 0.2 uL of iMax were mixed well for 5 min • B. 10 uL of opti-MEM and small RNA were mixed well (the concentration gradient of H460 cell experimental group was set as: 0.1 noml/L, 0.3 noml/L, 1 noml/L, 3 noml/L, 10 noml/L, 30 noml/L, 100 noml/L, 300 noml/L; the concentration gradient of A549 cell experimental group was set as: 0.01 noml/L, 0.03 nmol/L, 0.1 noml/L, 0.3 noml/L, 1 noml/L, 3 noml/L, 10 noml/L, 30 noml/L, 100 noml/L, 300 noml/L; the final concentration of sRNA in NC group was 100 noml/L) • C. solution A and solution B were mixed well and let stand for 15 min, and then a 20 uL system was added at a 20 uL system • Note: 100 uL of nuclease-free water was added to 2 nmol of small RNA dry powder for dissolution at a storage concentration of 20 umol/L

For data set [2], the system named is H460 cells. The description is as above. The settings on record: concentration gradient, MTS 48 h after transfection. Here is the method: as §1, §2, §3, §4, §5
For data set [3], the system named is breast cancer MCF7 cells. Nature of the data set: Apoptosis detection (Annexin V / PI). Conditions: 100 nmol/L, 48 h. Here is the method: 1) MCF-7 cells with a cell density of more than 90% in 10 cm^2 dishes were plated in 12-well plates according to the cell growth rate, and transfected after 12 h, and the groups were divided as follows: • blank control group (4 wells): 200 uL of opti-MEM per well • negative control group (NC group) and experimental group (3 wells each): • A. 100 uL of opti-MEM and 2 uL of iMax were mixed well for 5 min • B. 100 uL of opti-MEM and 5 uL of small RNA (final concentration 100 nmol/L) were mixed well • C. solution A and solution B were mixed well and let stand for 15 min, and then was added to each well at a 200 uL system • Note: 100 uL of nuclease-free water was added to 2 nmol of small RNA dry powder for dissolution at a storage concentration of 20 umol/L
The supernatant and cells were collected after 48 h and washed twice with pre-chilled PBS. The 4 tubes of cells in the blank control group were added respectively with: (1) 200 uL of 1× binding buffer; (2) 200 uL of 1× binding buffer and 5 uL of Annexin V stain; (3) 200 uL of 1× binding buffer and 5 uL of PI stain; (4) 200 uL of 1× binding buffer, 5 uL of Annexin V stain and 5 uL of PI stain. […] The live cell population and the position of quadrant gate were selected according to the blank control group, and then the apoptosis of the NC group and the experimental group was detected. […]

For the substance “HQi-sRNA-2: small RNA derived from Scutellaria baicalensis, sequence AUGGUUCGAUUCCGGAGAGGG (listed as RNA, chemistry not given here)”, the “proliferation-inhibiting function (cell activity, MTS)” value (from here on “proliferation-inhibiting function”) in data set [1] and in data set [2] was “concentration-dependent” in each case.
On to “MDM-sRNA-39: small RNA derived from Maytenus hookeri, sequence GGGAUUGUAGUUCAAUUGGUCAGAGCACC (listed as RNA, chemistry not given here)”, for which the “proliferation-inhibiting function” value in data set [1] and in data set [2] was “concentration-dependent” each time. Moreover, the apoptosis result in data set [3] is “promotes”.
Consider “MDM-sRNA-163: small RNA derived from Maytenus hookeri, sequence UGACUCUAGUCCGACUUUGUGAAAUGACU (listed as RNA, chemistry not given here)”, for which the “proliferation-inhibiting function” value in data set [1] and in data set [2] was “concentration-dependent” each time. For the same substance, in data set [3], the apoptosis entry is reported as “promotes”.
